Assay results as given in the NIST ThermoML archive (doi:10.1016/j.jct.2005.07.009).

Experiments:
[1] = xn = mol fraction of the nth substance listed; details: 298.15 K, 101 kPa, Liquid, Vibrating tube method
[2] = excess molar enthalpy (molar enthalpy of mixing); xn = mol fraction of the nth substance listed; details: 298.15 K, 101 kPa, Liquid

BrCCCBr [1,3-dibromopropane] + CCOC=O
Details	excess molar enthalpy [kJ/mol]	mass density [kg/m3]
[1], x2 = 0.0717	–	1908.92
[1], x2 = 0.1454	–	1844.11
[1], x2 = 0.2149	–	1781.28
[1], x2 = 0.2791	–	1721.26
[1], x2 = 0.3468	–	1656.48
[1], x2 = 0.4099	–	1594.33
[1], x2 = 0.4685	–	1534.98
[1], x2 = 0.5893	–	1407.8
[1], x2 = 0.6459	–	1345.63
[1], x2 = 0.6988	–	1285.95
[1], x2 = 0.7521	–	1224.47
[1], x2 = 0.8028	–	1164.26
[1], x2 = 0.8548	–	1101.12
[1], x2 = 0.9056	–	1037.67
[2], x2 = 0.0727	0.176	–
[2], x2 = 0.1458	0.302	–
[2], x2 = 0.2104	0.401	–
[2], x2 = 0.2886	0.473	–
[2], x2 = 0.3588	0.514	–
[2], x2 = 0.4253	0.528	–
[2], x2 = 0.4828	0.524	–
[2], x2 = 0.5358	0.51	–
[2], x2 = 0.5812	0.487	–
[2], x2 = 0.6324	0.455	–
[2], x2 = 0.6925	0.404	–
[2], x2 = 0.7529	0.339	–
[2], x2 = 0.8177	0.259	–
[2], x2 = 0.882	0.173	–
[2], x2 = 0.9449	0.0879	–

BrCCCCBr [1,4-dibromobutane] + CCCC(=O)OCC
Details	excess molar enthalpy [kJ/mol]	mass density [kg/m3]
[1], x2 = 0.1092	–	1704.75
[1], x2 = 0.1651	–	1647.4
[1], x2 = 0.2725	–	1539.36
[1], x2 = 0.387	–	1427.18
[1], x2 = 0.4481	–	1368.56
[1], x2 = 0.502	–	1317.46
[1], x2 = 0.6423	–	1187.58
[1], x2 = 0.6846	–	1149.12
[1], x2 = 0.7489	–	1091.51
[1], x2 = 0.8041	–	1042.59
[1], x2 = 0.9323	–	931.23
[2], x2 = 0.0504	0.0224	–
[2], x2 = 0.1096	0.0378	–
[2], x2 = 0.173	0.0463	–
[2], x2 = 0.2384	0.0469	–
[2], x2 = 0.2992	0.0393	–
[2], x2 = 0.3567	0.0254	–
[2], x2 = 0.4115	0.0013	–
[2], x2 = 0.4617	-0.0214	–
[2], x2 = 0.5078	-0.0408	–
[2], x2 = 0.5351	-0.0531	–
[2], x2 = 0.5479	-0.0556	–
[2], x2 = 0.5908	-0.0659	–
[2], x2 = 0.6504	-0.0717	–
[2], x2 = 0.7147	-0.0718	–
[2], x2 = 0.7818	-0.0658	–
[2], x2 = 0.8513	-0.0521	–
[2], x2 = 0.9352	-0.0251	–

BrCCCCBr [1,4-dibromobutane] + CCCCC(=O)OCC
Details	excess molar enthalpy [kJ/mol]	mass density [kg/m3]
[1], x2 = 0.0539	–	1762.5
[1], x2 = 0.109	–	1704.93
[1], x2 = 0.2129	–	1598.64
[1], x2 = 0.2678	–	1543.48
[1], x2 = 0.3262	–	1485.57
[1], x2 = 0.3815	–	1431.53
[1], x2 = 0.469	–	1347.31
[1], x2 = 0.5155	–	1303.25
[1], x2 = 0.554	–	1267.17
[1], x2 = 0.6207	–	1205.19
[1], x2 = 0.7373	–	1099.12
[1], x2 = 0.8643	–	986.49
[1], x2 = 0.9324	–	927.28
[2], x2 = 0.0901	0.0423	–
[2], x2 = 0.1832	0.0562	–
[2], x2 = 0.2717	0.0491	–
[2], x2 = 0.3528	0.0267	–
[2], x2 = 0.4123	-0.0083	–
[2], x2 = 0.4598	-0.0356	–
[2], x2 = 0.4897	-0.0495	–
[2], x2 = 0.5049	-0.0529	–
[2], x2 = 0.5621	-0.0714	–
[2], x2 = 0.6266	-0.0826	–
[2], x2 = 0.6967	-0.087	–
[2], x2 = 0.7722	-0.0824	–
[2], x2 = 0.852	-0.0668	–
[2], x2 = 0.9288	-0.0403	–

BrCCCCBr [1,4-dibromobutane] + CCOC(=O)CC
Details	excess molar enthalpy [kJ/mol]	mass density [kg/m3]
[1], x2 = 0.1225	–	1707.2
[1], x2 = 0.1797	–	1654.41
[1], x2 = 0.2372	–	1601.35
[1], x2 = 0.299	–	1544.11
[1], x2 = 0.3597	–	1488.19
[1], x2 = 0.479	–	1376.63
[1], x2 = 0.5912	–	1271.5
[1], x2 = 0.6516	–	1214.75
[1], x2 = 0.7649	–	1107.74
[1], x2 = 0.8159	–	1059.5
[1], x2 = 0.8793	–	999.28
[1], x2 = 0.9306	–	950.5
[2], x2 = 0.0536	0.0243	–
[2], x2 = 0.1124	0.0384	–
[2], x2 = 0.1759	0.0493	–
[2], x2 = 0.2389	0.0498	–
[2], x2 = 0.2996	0.0427	–
[2], x2 = 0.357	0.0291	–
[2], x2 = 0.4101	0.0091	–
[2], x2 = 0.4558	-0.0116	–
[2], x2 = 0.4841	-0.0259	–
[2], x2 = 0.4948	-0.0309	–
[2], x2 = 0.5354	-0.0502	–
[2], x2 = 0.5917	-0.0657	–
[2], x2 = 0.653	-0.0725	–
[2], x2 = 0.72	-0.0726	–
[2], x2 = 0.7905	-0.0629	–
[2], x2 = 0.8639	-0.0461	–
[2], x2 = 0.9353	-0.0257	–

BrCCCCBr [1,4-dibromobutane] + CCOC(C)=O
Details	excess molar enthalpy [kJ/mol]	mass density [kg/m3]
[1], x2 = 0.0713	–	1763.64
[1], x2 = 0.1362	–	1711.83
[1], x2 = 0.2057	–	1654.85
[1], x2 = 0.2657	–	1604.71
[1], x2 = 0.3922	–	1495.44
[1], x2 = 0.4539	–	1440.32
[1], x2 = 0.5154	–	1384.15
[1], x2 = 0.5749	–	1328.61
[1], x2 = 0.683	–	1224.74
[1], x2 = 0.7406	–	1167.52
[1], x2 = 0.7867	–	1121.03
[1], x2 = 0.8486	–	1057.13
[1], x2 = 0.9	–	1002.89
[1], x2 = 0.9494	–	949.81
[2], x2 = 0.0724	0.108	–
[2], x2 = 0.1477	0.174	–
[2], x2 = 0.2228	0.216	–
[2], x2 = 0.2954	0.234	–
[2], x2 = 0.3654	0.235	–
[2], x2 = 0.4273	0.225	–
[2], x2 = 0.4836	0.208	–
[2], x2 = 0.5346	0.187	–
[2], x2 = 0.5727	0.165	–
[2], x2 = 0.6226	0.138	–
[2], x2 = 0.6702	0.111	–
[2], x2 = 0.7257	0.0859	–
[2], x2 = 0.7826	0.06	–
[2], x2 = 0.8416	0.0388	–
[2], x2 = 0.8982	0.0218	–
[2], x2 = 0.9516	0.0101	–

BrCCCCBr [1,4-dibromobutane] + CCOC=O
Details	excess molar enthalpy [kJ/mol]	mass density [kg/m3]
[1], x2 = 0.0952	–	1765.32
[1], x2 = 0.1744	–	1716.81
[1], x2 = 0.2604	–	1660.33
[1], x2 = 0.3295	–	1611.72
[1], x2 = 0.4012	–	1557.95
[1], x2 = 0.4668	–	1505.48
[1], x2 = 0.5355	–	1446.96
[1], x2 = 0.5888	–	1398.87
[1], x2 = 0.6436	–	1346.56
[1], x2 = 0.6981	–	1291.4
[1], x2 = 0.7934	–	1186.14
[1], x2 = 0.9238	–	1023.59
[1], x2 = 0.9623	–	970.42
[2], x2 = 0.0799	0.23	–
[2], x2 = 0.1652	0.375	–
[2], x2 = 0.2469	0.494	–
[2], x2 = 0.3246	0.567	–
[2], x2 = 0.397	0.606	–
[2], x2 = 0.4607	0.622	–
[2], x2 = 0.5109	0.615	–
[2], x2 = 0.5179	0.619	–
[2], x2 = 0.5525	0.608	–
[2], x2 = 0.5649	0.599	–
[2], x2 = 0.5973	0.586	–
[2], x2 = 0.6082	0.574	–
[2], x2 = 0.6459	0.55	–
[2], x2 = 0.6929	0.506	–
[2], x2 = 0.7514	0.431	–
[2], x2 = 0.8051	0.354	–
[2], x2 = 0.8598	0.257	–
[2], x2 = 0.9121	0.158	–
[2], x2 = 0.9614	0.0594	–

BrCCCCCBr [1,5-dibromopentane] + CCCC(=O)OCC
Details	excess molar enthalpy [kJ/mol]	mass density [kg/m3]
[1], x2 = 0.059	–	1646.96
[1], x2 = 0.1242	–	1594.68
[1], x2 = 0.1821	–	1548
[1], x2 = 0.238	–	1502.9
[1], x2 = 0.3008	–	1451.99
[1], x2 = 0.4202	–	1354.48
[1], x2 = 0.5373	–	1258.57
[1], x2 = 0.5953	–	1210.74
[1], x2 = 0.6536	–	1162.53
[1], x2 = 0.7109	–	1115.08
[1], x2 = 0.7685	–	1067.15
[1], x2 = 0.8314	–	1014.81
[1], x2 = 0.8895	–	966.17
[2], x2 = 0.0632	0.0228	–
[2], x2 = 0.1296	0.0379	–
[2], x2 = 0.1974	0.0489	–
[2], x2 = 0.2617	0.0502	–
[2], x2 = 0.3247	0.0439	–
[2], x2 = 0.3843	0.0325	–
[2], x2 = 0.4396	0.0195	–
[2], x2 = 0.4909	0.0029	–
[2], x2 = 0.5367	-0.01	–
[2], x2 = 0.5745	-0.0214	–
[2], x2 = 0.6072	-0.0275	–
[2], x2 = 0.6211	-0.0316	–
[2], x2 = 0.6798	-0.0392	–
[2], x2 = 0.7429	-0.0436	–
[2], x2 = 0.8114	-0.0395	–
[2], x2 = 0.878	-0.0291	–
[2], x2 = 0.9431	-0.0149	–

BrCCCCCBr [1,5-dibromopentane] + CCCCC(=O)OCC
Details	excess molar enthalpy [kJ/mol]	mass density [kg/m3]
[1], x2 = 0.0539	–	1645.46
[1], x2 = 0.1105	–	1595.11
[1], x2 = 0.1636	–	1548.32
[1], x2 = 0.2206	–	1498.77
[1], x2 = 0.3289	–	1405.86
[1], x2 = 0.3899	–	1354.43
[1], x2 = 0.4455	–	1307.95
[1], x2 = 0.5024	–	1260.98
[1], x2 = 0.5632	–	1211.27
[1], x2 = 0.5935	–	1186.69
[1], x2 = 0.6792	–	1117.97
[1], x2 = 0.7412	–	1068.93
[1], x2 = 0.803	–	1020.6
[1], x2 = 0.8672	–	970.91
[1], x2 = 0.9294	–	923.31
[2], x2 = 0.0537	0.0294	–
[2], x2 = 0.1124	0.0503	–
[2], x2 = 0.1746	0.0661	–
[2], x2 = 0.2384	0.0746	–
[2], x2 = 0.3005	0.0749	–
[2], x2 = 0.3573	0.066	–
[2], x2 = 0.4121	0.05	–
[2], x2 = 0.4619	0.0282	–
[2], x2 = 0.5075	0.0041	–
[2], x2 = 0.5483	-0.0144	–
[2], x2 = 0.5745	-0.0237	–
[2], x2 = 0.6374	-0.0361	–
[2], x2 = 0.7074	-0.0419	–
[2], x2 = 0.7809	-0.0416	–
[2], x2 = 0.8572	-0.0355	–
[2], x2 = 0.9337	-0.0202	–
